Assay results published in paper PMC5485989, “Role of Free Radicals and Biotransformation in Trichloronitrobenzene-Induced Nephrotoxicity In Vitro” (International Journal of Molecular Sciences, 2017).
Values joined by “and” are separate entries in the source; they are usually repeats but may differ in a detail not shown here. Equal values may be shown once. Marks after values point to notes of the source that are not given here.

Key:
kidney = system: kidney; design: method as in PMID 2576285; settings: 1.0 mmol/kg, intraperitoneally, cited from earlier work
[1] = system: isolated renal cortical cells (IRCC); test: Time and concentration cytotoxicity study, LDH release in IRCC; type: cell-based, male Fischer 344 rats; settings: for Cytotoxicity (LDH release), time and concentration response: 0.5 or 1.0 mM, 15-120 min, significant difference from DMSO control, p < 0.05
Experimental: To determine the comparative nephrotoxic potential of the four TCNBs in IRCC, a time and concentration response study was performed starting at 15 min and 0.5 or 1.0 mM and adjusting the times tested based on the results (Figure 2).

[2] = system: isolated renal cortical cells (IRCC); test: 4-HNE adduction in IRCC (Western blot); type: cell-based, male Fischer 344 rats; settings: 0.5 or 1.0 mM, 15 or 30 min
Experimental: (§1) To determine if oxidative stress plays a role in 3,4,5-TCNB nephrotoxicity, experiments were conducted to determine the temporal aspects of free radical damage as evidenced by protein carbonylation (OxyBlot) and 4-hydroxynonenal (4-HNE) adduction.
(§2) Protein carbonylation was detected using OxyBlot™ Protein Oxidation (Millipore S7150; Temecula, CA, USA). Samples were prepared according to the manufacturer’s protocol and an equal amount of protein (25 µg) and volume were loaded in each lane of a 12.5% polyacrylamide gel and transferred to a nitrocellulose membrane (Whatman; 10-439-196; Dassel, Germany). The transfer was confirmed using a Memcode reversible protein stain kit (Pierce Biotechnology, Fisher Scientific) and the protein was used to normalize each lane. Membranes were incubated overnight at 4 °C with primary antibody (1:150) for OxyBlot. Goat anti-rabbit horse radish peroxidase (HRP, 1:300) was the secondary antibody. Protein with 4-hydroxynonenal (4-HNE) reduced Micahel adducts were prepared as described previously with the exception that 45 µg of protein was used for the gel. The membranes were developed using Amersham^TM ECLTM Western Blotting Reagents (GE Healthcare; Buckinghamshire, UK) and the results were viewed and analyzed using a Bio-Rad Chemidoc system with BioRad Chemidoc densitometry software (version 4.0.1, Catalog No. 170-9690, BioRad, Hercules, CA, USA).

[3] = system: isolated renal cortical cells (IRCC); test: Protein carbonylation in IRCC (OxyBlot); type: cell-based, male Fischer 344 rats
Experimental: as §1, §2

renal cortical slices = settings: 120 min incubations; cited from earlier work
[4] = system: isolated renal cortical cells (IRCC); test: Effect of antioxidant or biotransformation inhibitor pretreatment on TCNB cytotoxicity, LDH release in IRCC; settings: 1.0 mM 2,3,4-TCNB alone, 60 min; one value per pretreatment experiment; mean ± S.E., n = 4
Experimental: Untreated rats were anesthetized with pentobarbital (75 mg/kg, i.p.) and isolated renal cortical cells (IRCC) were obtained by using the collagenase perfusion method. Initial cell viability was determined by measuring trypan blue (2% w/v) exclusion and lactate dehydrogenase (LDH) release. […] IRCC were then exposed to various concentrations of a TCNB (0, 0.5, or 1.0 mM) for 15, 30, 60, 90, or 120 min. Following the incubation period, flasks were removed and placed on ice. Samples (0.5 mL) were taken for LDH release assays. Briefly, the samples were centrifuged (3000× g, 3 min), the was supernatant decanted and saved, and the pellet was disrupted with 1 mL of 10% Triton X-100 solution to release cellular LDH activity. LDH activity was then determined in each fraction (supernatant and pellet) as previously described using a kinetic assay based on the amount of NADH produced from NAD [57]. The LDH released was expressed as % of total (supernatant plus pellet).
Concentrations used in these experiments were 0.5 mM (3,4,5-TCNB) or 1.0 mM (2,3,4-, 2,4,5- and 2,4,6-TCNB). Incubation times with a TCNB added were 30 min (3,4,5-TCNB), 60 min (2,3,4-TCNB), or 90 min (2,4,5- and 2,4,6-TCNB). The pretreatment times and concentrations for all of the pretreatments are shown below in Table 5.

SMILES | Renal effects (kidney; 48 h after treatment) | Urinary creatinine and blood urea nitrogen (BUN) concentrations (kidney) | Cytotoxicity (LDH release), time and concentration response [1] | Concentration at which cytotoxicity was evident ([1]; as early as 30 min) | Order of decreasing nephrotoxic potential ([1]; based on time of onset, lowest concentration required and magnitude of LDH release) | 4-HNE levels [2] | Protein carbonylation ([3]; 1.0 mM, 30 min, p = 0.017) | Protein carbonylation ([3]; 0.5 or 1.0 mM, 15 or 30 min) | Lowest concentration inducing in vitro nephrotoxicity (increased LDH release and decreased pyruvate-stimulated gluconeogenesis) (renal cortical slices) | % of lactate dehydrogenase release, 2,3,4-TCNB [4]
O=[N+]([O-])c1ccc(Cl)cc1 [4-chloronitrobenzene] | induced diuresis, increased N-acetyl-β-D-glucosaminidase excretion, and caused swelling of the kidney | not altered | – | – | – | – | – | – | – | –
O=[N+]([O-])c1cc(Cl)c(Cl)c(Cl)c1 [3,4,5-TCNB] | – | – | induced cytotoxicity at 30 and 60 min (0.5 and 1.0 mM) but not at 15 min | 500 µM | most potent nephrotoxicant | not increased | slightly decreased | not increased | 0.5 mM | –
O=[N+]([O-])c1ccc(Cl)c(Cl)c1Cl [2,3,4-TCNB, 2,3,4-trichloronitrobenzene] | – | – | exhibited cytotoxicity starting after 15 min (1.0 mM) and 60 min exposure (0.5 and 1.0 mM), but no cytotoxicity was observed at 15 min | – | – | – | – | – | 0.5 mM | 28 ± 2 ^c % and 21 ± 1 ^c % and 22 ± 1 ^c % and 18 ± 1 ^c % and 20 ± 2 ^c % and 23 ± 2 ^c % and 20 ± 1 ^c % and 19 ± 1 ^c %
